We go through 16 compounds from US20260167623A1 (NIKANG THERAPEUTICS, INC., priority 2022, published 2026).

The target in experiment [1] is T1, CDK2 (Homo sapiens, UniProt P24941).
T1 construct: High-Throughput Measurement of Cellular Endogenous CDK2; endogenous in cells; host or cells: OVCAR3
As to the kind of experiment: High-throughput HTRF measurement of cellular endogenous CDK2 level (degradation, DC50/Dmax) in OVCAR3 cells, 6 h. The class given is cell-based. The following applies: 6 h compound treatment, HTRF total CDK2, read-out: DC50_OVCAR3_6h. Here is the method:
High-Throughput Measurement of Cellular Endogenous CDK2
Effects of compounds on cellular CDK2 level were monitored by a high-throughput HTRF assay.
To determine half maximal degradation concentration (DC50) and maximum degradation level (Dmax) values of compounds, cellular CDK2 level was measured in 96-well format using HTRF total CDK2 cellular kit (Cat #64CDK2TPEG) from Cisbio.
On Day 1, OVCAR3 cells were seeded into 96-well tissue-culture treated plates at 20,000 cells/well in 200 μL and incubated overnight at 37° C. in CO2 atmosphere. On Day 2 cells were treated with compounds at concentration ranging from 0.03 to 1,000 nM using HP D300 digital dispenser. 6 hours after compound treatment, cell culture media was removed by flicking the plate and tapping the plate against clean paper towel. Immediately 30 μL 1× lysis buffer was supplemented from the kit and added to each well and the plate is incubated at room temperature on shaker for 30 min. After homogenization by pipetting up and down, 8 μL cell lysate from 96-well cell culture plate was transferred to 384-well small volume white detection plate. 2 μL premixed detection solution was added and the plate is covered with sealer. To prepare the detection solution, d2 conjugated-CDK2 antibody and Eu-cryptate conjugated CDK2 antibody were diluted into detection buffer following manufacturer's instruction. Detection plates were incubated overnight at room temperature and read on ClarioStar (BMG Labtech) in TR-FRET mode (665 nM and 620 nM). The TR-FRET ratio (665 nM/620 nM) was plotted against the compound concentration and normalized to DMSO controls (0% degradation) and lysis buffer controls (100% degradation). Half maximal degradation concentration (DC 50) […] were calculated with a four-parameter logistic fit using GraphPad Prism (version 8; La Jolla, CA).
In the table below, AA indicates a DC50 of greater than or equal to 0.5 nM but less than 1 nM; A indicates a DC50 of greater than or equal to 1 nM but less than or equal to 10 nM; B indicates a DC50 of greater than 10 nM but less than or equal to 100 nM; C indicates a DC50 of greater than 100 nM but less than or equal to 1 μM; and D indicates a DC50 of greater than 1 μM […] but less than or equal to 5 μM. NT means not tested.
Background: Time-resolved FRET reads energy transfer from a long-lived donor to a nearby acceptor.

In experiment [2] the target is T1, CDK2. As to the kind of experiment: Inhibition of CDK2: phospho-Rb (S807/811) HTRF measurement in OVCAR3 cells, 24 h. It counts as cell-based. To be noted: 24 h compound treatment, read-out: pRB_OVCAR3_24h. The essentials: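 IC50 came from a four-parameter fit of DMSO-normalized TR-FRET ratios (665/620 nm) reporting phospho-Rb S807/811. Lysates were taken from OVCAR3 cultures treated 24 h with compound (0.3 to 10,000 nM) and incubated 4 h at room temperature with the antibody pair.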

Each structure is given as a SMILES string.

In the case of `Cn1nc(N2CCC(=O)NC2=O)c2ccc(C3CCN(CC4CCN(c5cccc(S(=O)(=O)N6CCC(Nc7ncc(C(F)(F)F)cn7)CC6)c5)CC4)CC3)cc21` [Example 40, 1-(1-methyl-6-(1-((1-(3-((4-((5-(trifluoro-methyl)pyrimidin-2-yl)amino)piperidin-1-yl)sulfonyl)phenyl)piperidin-4-yl)methyl)piperidin-4-yl)-1H-indazol-3-yl)dihydropyrimidine-2,4(1H,3H)-dione], at CDK2 [1], the DC50 was 1 to 10 nM. Besides, the IC50 at CDK2 [2] fell in the range of 1 to 100 nM.

With `O=C1CCC(N2Cc3cc(N4CCN(Cc5cccc(S(=O)(=O)N6CCC(Nc7ncc(C(F)(F)F)cn7)CC6)c5)CC4)c(F)cc3C2=O)C(=O)N1` (centres unmarked) [Example 42, 3-(6-fluoro-1-oxo-5-(4-(3-((4-((5-(trifluoro-methyl)pyrimidin-2-yl)amino)piperidin-1-yl)sulfonyl)benzyl)piperazin-1-yl)isoindolin-2-yl)piperidine-2,6-dione], the DC50 at CDK2 [1] is 1 to 10 nM. Further, the IC50 at CDK2 [2] is 1 to 100 nM.

`O=C1CCC(N2Cc3cc(N4CCN(Cc5cccc(S(=O)(=O)N6CCC(Nc7ncc(OC(F)F)cn7)CC6)c5)CC4)c(F)cc3C2=O)C(=O)N1` (centres unmarked) [Example 43, 3-(5-(4-(3-((4-((5-(difluoromethoxy)-pyrimidin-2-yl)amino)piperidin-1-yl)sulfonyl)benzyl)piperazin-1-yl)-6-fluoro-1-oxoisoindolin-2-yl)piperidine-2,6-dione]: the DC50 on CDK2 [1] fell in the range of 10 to 100 nM. Also, the IC50 on CDK2 [2] was 100 to 500 nM.

As to `Cn1c(S(=O)(=O)N2CCC(Nc3ncc(C(F)(F)F)cn3)CC2)cnc1CN1CCC(c2ccc3c(N4CCC(=O)NC4=O)nn(C)c3c2)CC1` [Example 47, 1-(1-methyl-6-(1-((1-methyl-5-((4-((5-(trifluoromethyl)pyrimidin-2-yl)amino)-piperidin-1-yl)sulfonyl)-1H-imidazol-2-yl)methyl)piperidin-4-yl)-1H-indazol-3-yl)dihydropyrimidine-2,4(1H,3H)-dione], the DC50 at CDK2 [1] was in the range of 10 to 100 nM. At CDK2 [2], the IC50 fell in the range of 1 to 100 nM.

As for `CC(Cc1cccc(S(=O)(=O)N2CCC(Nc3ncc(Cl)cn3)CC2)c1)CN1CCC(c2ccc3c(N4CCC(=O)NC4=O)nn(C)c3c2)CC1` (centres unmarked) [Example 53, 1-(6-(1-(3-(3-((4-((5-chloropyrimidin-2-yl)amino)piperidin-1-yl)sulfonyl)phenyl)-2-methylpropyl)piperidin-4-yl)-1-methyl-1H-indazol-3-yl)dihydropyrimidine-2,4(1H,3H)-dione], the DC50 on CDK2 [1] was 10 to 100 nM. Also, the IC50 on CDK2 [2] was in the range of 1 to 100 nM.

Take `Cn1nc(N2CCC(=O)NC2=O)c2ccc(C3CCN(CC(C)(C)Cc4cccc(S(=O)(=O)N5CCC(Nc6ncc(Cl)cn6)CC5)c4)CC3)cc21` [Example 54, 1-(6-(1-(3-(3-((4-((5-chloropyrimidin-2-yl)amino)piperidin-1-yl)sulfonyl)phenyl)-2,2-dimethylpropyl)piperidin-4-yl)-1-methyl-1H-indazol-3-yl)dihydropyrimidine-2,4(1H,3H)-dione]: the DC50 at CDK2 [1] lay within 1 to 10 nM. Also, the IC50 on CDK2 [2] lay within 1 to 100 nM.

As for `Cn1nc(N2CCC(=O)NC2=O)c2ccc(C3CCN(CC(C)(C)Cc4cccc(S(=O)(=O)N5CCC(Nc6ncc(C(F)(F)F)cn6)CC5)c4)CC3)cc21` [Example 55, 1-(6-(1-(2,2-dimethyl-3-(3-((4-((5-(trifluoro-methyl)pyrimidin-2-yl)amino)piperidin-1-yl)sulfonyl)phenyl)propyl)piperidin-4-yl)-1-methyl-1H-indazol-3-yl)dihydropyrimidine-2,4(1H,3H)-dione], at CDK2 [1], the DC50 fell in the range of 10 to 100 nM. Besides, the IC50 on CDK2 [2] is 1 to 100 nM.

Regarding `C=Cc1cnc(NC2CCN(S(=O)(=O)c3cccc(CN4CCC(c5ccc6c(N7CCC(=O)NC7=O)nn(C)c6c5)CC4)c3)CC2)nc1` [Example 58, 1-(1-methyl-6-(1-(3-((4-((5-vinylpyrimidin-2-yl)amino)piperidin-1-yl)sulfonyl)benzyl)-piperidin-4-yl)-1H-indazol-3-yl)dihydropyrimidine-2,4(1H,3H)-dione], the DC50 at CDK2 [1] was 1 to 10 nM. The IC50 at CDK2 [2] was 100 to 500 nM.

`CCc1cnc(NC2CCN(S(=O)(=O)c3cccc(CN4CCC(c5ccc6c(N7CCC(=O)NC7=O)nn(C)c6c5)CC4)c3)CC2)nc1` [Example 61, 1-(6-(1-(3-((4-((5-ethylpyrimidin-2-yl)amino)piperidin-1-yl)sulfonyl)benzyl)-piperidin-4-yl)-1-methyl-1H-indazol-3-yl)dihydropyrimidine-2,4(1H,3H)-dione]: the DC50 on CDK2 [1] was 10 to 100 nM. Also, the IC50 at CDK2 [2] lay in the range of 1 to 100 nM.

On to `Cn1nc(N2CCC(=O)NC2=O)c2ccc(C3CCN(Cc4ccc(S(=O)(=O)N5CCC(Nc6ncc(C(F)(F)F)cn6)CC5)cc4)CC3)cc21` [Example 64, 1-(1-methyl-6-(1-(4-((4-((5-(trifluoro-methyl)pyrimidin-2-yl)amino)piperidin-1-yl)sulfonyl)benzyl)piperidin-4-yl)-1H-indazol-3-yl)dihydropyrimidine-2,4(1H,3H)-dione], for which the DC50 on CDK2 [1] fell in the range of 1 to 10 nM. The IC50 on CDK2 [2] was 1 to 100 nM.

Consider `CC(Cc1cccc(S(=O)(=O)N2CCC(Nc3ncc(OC(F)F)cn3)CC2)c1)CN1CCC(c2ccc3c(N4CCC(=O)NC4=O)nn(C)c3c2)CC1` (centres unmarked) [Example 66, 1-(6-(1-(3-(3-((4-((5-(difluoromethoxy)-pyrimidin-2-yl)amino)piperidin-1-yl)sulfonyl)phenyl)-2-methylpropyl)-piperidin-4-yl)-1-methyl-1H-indazol-3-yl)dihydropyrimidine-2,4(1H,3H)-dione], for which the DC50 at CDK2 [1] is 1 to 10 nM. For the same compound, the IC50 on CDK2 [2] was 1 to 100 nM.

Turning to `Cn1nc(N2CCC(=O)NC2=O)c2ccc(C3CCN(CC4CCN(c5cccc(S(=O)(=O)N6CCC(Nc7ncc(Cl)cn7)CC6)c5)CC4)CC3)c(Cl)c21` [Example 71, 1-(7-chloro-6-(1-((1-(3-((4-((5-chloro-pyrimidin-2-yl)amino)piperidin-1-yl)sulfonyl)phenyl)piperidin-4-yl)methyl)-piperidin-4-yl)-1-methyl-1H-indazol-3-yl)dihydropyrimidine-2,4(1H,3H)-dione], on CDK2 [1], the DC50 fell in the range of 1 to 10 nM. Besides, the IC50 on CDK2 [2] was in the range of 1 to 100 nM.

Consider `O=C1CCC(N2Cc3cc(N4CCN(Cc5cccc(S(=O)(=O)N6CCC(Nc7ncc(OC(F)F)cn7)CC6)c5)CC4)c(F)cc3C2=O)C(=O)N1` (centres unmarked) [Example 74, 3-(5-(4-(3-((4-((5-(difluoromethoxy)-pyrimidin-2-yl)amino)piperidin-1-yl)sulfonyl)benzyl)piperazin-1-yl)-6-fluoro-1-oxoisoindolin-2-yl)piperidine-2,6-dione], for which the DC50 on CDK2 [1] lay in the range of 1 to 10 nM. For the same compound, the IC50 at CDK2 [2] was in the range of 100 to 500 nM.

Regarding `O=C1CCC(N2Cc3cc(N4CCN(Cc5cccc(S(=O)(=O)N6CCC(Nc7ncc(C(F)(F)F)cn7)CC6)c5)CC4)ccc3C2=O)C(=O)N1` (centres unmarked) [Example 76, 3-(1-oxo-5-(4-(3-((4-((5-(trifluoromethyl)-pyrimidin-2-yl)amino)piperidin-1-yl)sulfonyl)benzyl)piperazin-1-yl)isoindolin-2-yl)piperidine-2,6-dione], the DC50 on CDK2 [1] was 1 to 10 nM. In addition, the IC50 on CDK2 [2] lay in the range of 1 to 100 nM.

For the compound `Cn1nc(N2CCC(=O)NC2=O)c2cc(F)c(C3CCN(Cc4cccc(S(=O)(=O)N5CCC(Nc6ncc(OC(F)F)cn6)CC5)c4)CC3)cc21` [Example 77, 1-(6-(1-(3-((4-((5-(difluoromethoxy)-pyrimidin-2-yl)amino)piperidin-1-yl)sulfonyl)benzyl)piperidin-4-yl)-5-fluoro-1-methyl-1H-indazol-3-yl)dihydropyrimidine-2,4(1H,3H)-dione], the DC50 at CDK2 [1] lay within 1 to 10 nM. The IC50 at CDK2 [2] was 1 to 100 nM.

As to `Cn1c(=O)n(C2CCC(=O)NC2=O)c2cccc(C3CCN(Cc4cccc(S(=O)(=O)N5CCC(Nc6ncc(C(F)(F)F)cn6)CC5)c4)CC3)c21` (centres unmarked) [Example 83, 3-(3-methyl-2-oxo-4-(1-(3-((4-((5-(trifluoromethyl)pyrimidin-2-yl)amino)piperidin-1-yl)sulfonyl)benzyl)-piperidin-4-yl)-2,3-dihydro-1H-benzo[d]imidazol-1-yl)piperidine-2,6-dione], the DC50 on CDK2 [1] lay within 1 to 10 nM. In addition, at CDK2 [2], the IC50 fell in the range of 1 to 100 nM.
